Like-named read-outs stand apart in the source and are kept apart here. Values belong to the molecule of their own block, whether it stands above or below them.
Legend:
interleukin-6 (IL-6) = test: LPS-induced IL-6 production in RAW 264.7 macrophages; conditions: Mus musculus, RAW264.7, read-out: IC50 IL-6
nitric oxide (NO) = test: LPS-induced nitric oxide production in RAW 264.7 macrophages; assay type: cell-based, Mouse; conditions: for IC50: Mus musculus, RAW264.7, LPS-stimulated RAW 264.7 macrophages, mean ± SEM, three experiments
Description: Nitrite concentration was determined using a dilution of sodium nitrite as a standard.
(§1) Furthermore, the anti-inflammatory effects of MPT0G009 was evaluated. […] These supernatants were then assayed for PGE2, NO, and IL-6.

[1] = tested on: tumor necrosis factor-α (TNF-α); test: LPS-induced TNF-α production in RAW 264.7 macrophages; conditions: Mus musculus, RAW264.7, read-out: IC50 TNF-α
prostaglandin E2 (PGE2) [2] = test: LPS-induced PGE2 production in RAW 264.7 macrophages; assay type: cell-based, Mouse; conditions: for IC50: Mus musculus, RAW264.7, LPS-stimulated RAW 264.7 macrophages, mean ± SEM, three experiments
Description: as §1

[3] = tested on: carrageenan-induced hind paw edema; test: carrageenan-induced hind paw edema; conditions: for carrageenan-induced hind paw edema: oral, 1 h before carrageenan, compound 9 25 mg/kg, SAHA 200 mg/kg, Indomethacin 5 mg/kg, measured 3 h after
Description: A 0.5% (w/v) suspension of carrageenan in normal saline was administered to male Wistar rats (7-weeks) by intradermal injection into the base of the right hind paw. […] A positive control group was included in which rats were pretreated with 5 mg/kg Indomethacin. […] The results are expressed as the mean±SEM, with n=5. *p<0.05 compared to the control group; #p<0.05 for the comparison of the indicated groups.
Animals were divided into four groups (n=5). 0.5% (w/v) suspension of carrageenan in normal saline was administered to male Wistar rats (7-weeks) by intradermal injection into the base of the right hind paw. […] A positive control group was included in which rats were pretreated with 5 mg/kg Indomethacin. Three hours after carrageenan administration, the thickness and volume of the right hind paw were measured by digital caliper and digital plethysmometer (Diagnostic & Research Instruments CO., Ltd, Taipei, Taiwan), respectively.

[4] = tested on: adjuvant-induced arthritis; test: adjuvant-induced arthritis (AIA) model; conditions: day 21, ELISA; MPT0G009 25 mg/kg, SAHA 200 mg/kg, indomethacin 1 mg/kg
Description: (FIG. 8B) Hind paw volumes in the indicated group of rats were measured using a digital plethysmometer on the indicated day after AIA induction. […] (FIG. 8D) Serum levels of interleukin (IL)-1β (left panel) and IL-6 (right panel) on day 21 as measured by enzyme-linked immunosorbent assay (ELISA). […] (FIG. 8F) The bone mineral density (BMD, in mg/mm^3) and the bone mineral content (BMC, in mg) values for the bone tissue of the tarsus were analyzed using CT Analysis Software.

[5] = rats, SAHA (reference 30), cited from earlier work
HDAC3 = test: HDAC isoform protein levels, Western blot, RA-FLS; assay type: cell-based; conditions: 12 or 24 h; 1 μM MPT0G009 or 30 μM SAHA
Description: Then cells were harvested and cell lysates were prepared for Western blot analysis of the indicated proteins. (FIG. 5C) RA-FLS were incubated for 1 h with or without the proteasome inhibitor, MG132 (1 μM). […] Results shown are representative of three independent experiments.

[6] = tested on: inducible nitric oxide synthase (iNOS); test: LPS-induced iNOS protein expression, Western blot, RAW264.7; assay type: cell-based, Mouse; conditions: RAW264.7, 0.1-10 μM, LPS 25 ng/mL 24 h
Description: (§2) Then the cells were harvested and whole cell extracts were prepared for Western blot analysis for iNOS and COX-2. The relative protein expressions are presented as mean±SEM for four replicates. *p<0.05 compared to the LPS-treated group.

p21 = p21 expression by flow cytometry or western blot in RA-FLS; assay type: cell-based; conditions: 24 h, 1 μM MPT0G009 or 3 μM SAHA
Excerpt: (§3) (FIG. 1A) Structure of MPT0G009. […] Results in (FIGS. 1B-E) and (FIG. 1G) are means±SEM's for three independent experiments, *p<0.05 and **p<0.01 compared with no added inhibitor.

prostaglandin E2 (PGE2) [7] = test: LPS-induced PGE2 production by RA-FLS; assay type: cell-based; conditions: MPT0G009 0.1, 1, 10 μM; SAHA 0.3, 3, 30 μM; LPS 25 ng/mL 24 h
Description: as §3, §1

cyclooxygenase-2 (COX-2) = test: LPS-induced COX-2 protein expression, Western blot, RAW264.7; assay type: cell-based, Mouse; conditions: RAW264.7, 0.1-10 μM, LPS 25 ng/mL 24 h
Description: as §2

RA-FLS [8] = test: cell cycle distribution by flow cytometry (propidium iodide); assay type: cell-based; conditions: 24 h
Excerpt: as §3

RA-FLS [9] = test: SRB anti-proliferation assay; assay type: cell-based; conditions: 24 or 48 h incubation
Excerpt: as §3

HIG-82 synoviocytes = test: SRB anti-proliferation assay; assay type: cell-based; conditions: 24 or 48 h incubation
Excerpt: as §3

RAW264.7 macrophages = test: M-CSF/RANKL-induced osteoclast formation; assay type: cell-based, Mouse; conditions: 5 nM MPT0G009 or 50 nM SAHA; M-CSF/RANKL 50 ng/mL, 5 days
Description: Cells were then tartrate resistant acid phosphatase (TRAP) stained, and the numbers of TRAP-positive multinuclear cells were counted. […] Images are at ×100 magnification, and the arrows indicate differentiated osteoclasts. (FIG. 6C) RAW264.7 cells were treated as in (FIG. 6B), then incubated with a fluorescein isothiocyanate (FITC)-conjugated anti-CD51/61 antibody and analyzed by flow cytometry. (FIGS. 6D and 6E) RAW264.7 cells (1×10^5) were transfected with 1 μg of pGL4.32[luc2P/NF-κB-RE/Hygro] (FIG. 6D) or pGL4.30[luc2P/NFAT-RE/Hygro] (FIG. 6E) for 24 h and then incubated for 30 min with or without MPT0G009 (5 nM). Then RANKL (50 ng/mL) was added and incubation was continued for an additional 24 h, after which luciferase activity was determined. Results in (FIGS. 6A, 6D, and 6E) are the means±SEM's for three independent experiments. **p<0.01 compared with the indicated controls.
Bone destruction is one characteristic of RA pathogenesis, resulting in joint dysfunction. Differentiation of mouse macrophages osteoclast-like cells can be induced in the presence of M-CSF and RANKL, which has been used as a model to investigate osteoclast differentiation. […] Subsequently, multinucleate tartrate resistant acid phosphatase (TRAP)-positive cells were counted.

IL-6 = test: IL-1β-induced IL-6 production by RA-FLS; assay type: cell-based; conditions: MPT0G009 0.1, 1, 10 μM; SAHA 0.3, 3, 30 μM; IL-1β 10 ng/mL 24 h
Description: as §3, §1

[10] = MPT0G009 0.1, 1, 10 μM, SAHA 0.3, 3, 30 μM, LPS 25 ng/mL 24 h

Structure (SMILES): O=C(C=Cc1ccc2c(c1)CCN2S(=O)(=O)c1ccc(F)cc1)NO [Compound 11, 3-[1-(4-Fluorobenzenesulfonyl)-2,3-dihydro-1H-indol-5-yl]-N-hydroxyacrylamide]
melting point: 129 to 131 °C
IC50 (interleukin-6 (IL-6)): 0.03 µM
IC50 (nitric oxide (NO)): 4.41 ± 0.31 µM
IC50 [1]: 1.04 ± 0.25 µM
IC50 (prostaglandin E2 (PGE2) [2]): 1.31 ± 0.16 µM

Structure (SMILES): Nc1ccc(S(=O)(=O)N2CCc3cc(C=CC(=O)NO)ccc32)cc1 [Compound 14, 3-[1-(4-Aminobenzenesulfonyl)-2,3-dihydro-1H-indol-5-yl]-N-hydroxyacrylamide]
melting point: 97 to 99 °C
IC50 (interleukin-6 (IL-6)): > 10 µM
IC50 (nitric oxide (NO)): > 10 µM
IC50 [1]: > 10 µM
IC50 (prostaglandin E2 (PGE2) [2]): > 10 µM

Structure (SMILES): O=C(/C=C/c1ccc2c(ccn2S(=O)(=O)c2ccccc2)c1)NO [Compound 6]
IC50 (interleukin-6 (IL-6)): 0.17 µM
IC50 (nitric oxide (NO)): > 10 µM
IC50 [1]: 3.73 ± 0.26 µM
IC50 (prostaglandin E2 (PGE2) [2]): 5.13 ± 0.48 µM

Structure (SMILES): COc1ccc2c(c1)c(CC(=O)O)c(C)n2C(=O)c1ccc(Cl)cc1 [Indomethacin, reference compound]
carrageenan-induced hind paw edema [3]: suppressed
serum levels of IL-1β [4]: significant decreases
serum levels of IL-6 [4]: significant decreases

Structure (SMILES): CN(C)c1cccc2c(S(=O)(=O)N3CCc4cc(C=CC(=O)NO)ccc43)cccc12 [Compound 15, 3-[1-(5-Dimethylaminonaphthalene-1-sulfonyl)-2,3-dihydro-1H-indol-5-yl]-N-hydroxyacrylamide]
melting point: 142 to 143 °C
IC50 (interleukin-6 (IL-6)): 0.09 µM
IC50 (nitric oxide (NO)): > 10 µM
IC50 [1]: 2.11 ± 0.28 µM
IC50 (prostaglandin E2 (PGE2) [2]): 2.7 ± 0.43 µM

Structure (SMILES): O=C(CCCCCCC(=O)Nc1ccccc1)NO [SAHA, Suberanilohydroxamic Acid, reference compound]
AUC(0-inf) ([5]; iv 2 mg/kg): 278 ng·h/mL
CL ([5]; iv 2 mg/kg): 134 mL/min/kg
T1/2 ([5]; iv 2 mg/kg): 38.4 min
Vd ([5]; iv 2 mg/kg): 3.92 L/kg
AUC(0-inf) ([5]; po 5 mg/kg): 49.40 ng·h/mL
Cmax ([5]; po 5 mg/kg): 83.90 ng/mL
F ([5]; po 5 mg/kg): 6.9%
T1/2 ([5]; po 5 mg/kg): 67.8 min
Tmax ([5]; po 5 mg/kg): 10.2 min
levels of HDAC3 in RA-FLS (HDAC3): no effect
iNOS protein expression [6]: significantly inhibited
iNOS protein expression ([6]; listed as SAHA (1)): concentration-dependently inhibitory effects
expression of p21 (p21): significantly increased
paw thickness reduced compared to control ([3]; SAHA 200 mg/kg oral, 3 h after carrageenan): 15.7%
carrageenan-induced hind paw edema [3]: significantly inhibited
carrageenan-induced hind paw edema ([3]; listed as SAHA (1)): suppress
PGE2 production by RA-FLS (prostaglandin E2 (PGE2) [7]): inhibited
COX-2 protein expression (cyclooxygenase-2 (COX-2)): significantly inhibited
COX-2 protein expression (cyclooxygenase-2 (COX-2); listed as SAHA (1)): concentration-dependently inhibitory effects
subG1 peak (cellular apoptosis) (RA-FLS [8]; MPT0G009 1-1000 nM, SAHA 3-3000 nM): did not increase the subG1 peak
G0/G1 phase arrest (RA-FLS [8]; all concentrations of both agents): G0/G1 phase arrest was observed
serum levels of IL-1β [4]: significant decreases
serum levels of IL-6 [4]: significant decreases
proliferation of RA-FLS (RA-FLS [9]): concentration-dependent anti-proliferative effects
proliferation of HIG-82 synoviocytes (HIG-82 synoviocytes): concentration-dependent anti-proliferative effects
expression of osteoclast-specific marker CD51/61 (RAW264.7 macrophages): no effect
formation of M-CSF/RANKL-induced TRAP-positive cells (RAW264.7 macrophages): no effect
NO production by RAW264.7 cells (nitric oxide (NO); [10]): inhibited
PGE2 production by RAW264.7 cells (prostaglandin E2 (PGE2) [2]; [10]): inhibited
IL-6 production by RA-FLS (IL-6): inhibited

The remaining molecules from weak to strong by IC50 (interleukin-6 (IL-6)), led by results:

melting point: 163 to 165 °C
IC50 (interleukin-6 (IL-6)): 0.02 µM
IC50 (nitric oxide (NO)): 3.11 ± 0.37 µM
IC50 (prostaglandin E2 (PGE2) [2]): 1.76 ± 0.26 µM
Structure (SMILES): O=C(C=Cc1ccc2c(c1)CCN2S(=O)(=O)c1ccc([N+](=O)[O-])cc1)NO [Compound 13, 3-[1-(4-Nitrobenzenesulfonyl)-2,3-dihydro-1H-indol-5-yl]-N-Hydroxyacrylamide]
IC50 [1]: 1.37 ± 0.18 µM

melting point: 156 to 157 °C
IC50 (interleukin-6 (IL-6)): 0.02 µM
IC50 (nitric oxide (NO)): 7.35 ± 0.83 µM
IC50 (prostaglandin E2 (PGE2) [2]): 1.36 ± 0.29 µM
Structure (SMILES): COc1cccc(S(=O)(=O)N2CCc3cc(C=CC(=O)NO)ccc32)c1 [Compound 8, 3-[1-(3-Methoxybenzenesulfonyl)-2,3-dihydro-1H-indol-5-yl]-N-hydroxyacrylamide]
IC50 [1]: 1.09 ± 0.12 µM

IC50 (interleukin-6 (IL-6)): 0.02 µM
IC50 (nitric oxide (NO)): 4.64 ± 0.12 µM
IC50 (prostaglandin E2 (PGE2) [2]): 1.68 ± 0.27 µM
Structure (SMILES): O=C(C=Cc1ccc2c(c1)CCN2S(=O)(=O)c1ccccc1)NO [Compound 7, 3-(1-Benzenesulfonyl-2,3-dihydro-1H-indol-5-yl)-N-hydroxyacrylamide]
IC50 [1]: 0.99 ± 0.07 µM

melting point: 159 to 160 °C
IC50 (interleukin-6 (IL-6)): 0.02 µM
IC50 (nitric oxide (NO)): 5.49 ± 0.48 µM
IC50 (prostaglandin E2 (PGE2) [2]): 1.04 ± 0.15 µM
Structure (SMILES): O=C(C=Cc1ccc2c(c1)CCN2S(=O)(=O)c1ccc(Cl)cc1)NO [Compound 12, 3-[1-(4-Chlorobenzenesulfonyl)-2,3-dihydro-1H-indol-5-yl]-N-hydroxyacrylamide]
IC50 [1]: 1.01 ± 0.11 µM

melting point: 192 to 193 °C
IC50 (interleukin-6 (IL-6)): 0.01 µM
IC50 (nitric oxide (NO)): 7.31 ± 0.66 µM
IC50 (prostaglandin E2 (PGE2) [2]): 1.9 ± 0.21 µM
Structure (SMILES): COc1ccc(S(=O)(=O)N2CCc3cc(C=CC(=O)NO)ccc32)cc1OC [Compound 10, 3-[1-(3,4-Dimethoxybenzenesulfonyl)-2,3-dihydro-1H-indol-5-yl]-N-hydroxyacrylamide]
IC50 [1]: 0.62 ± 0.12 µM
